What is called IC50 is the concentration needed to halve the response being measured. The low end stands for greater potency, the high end for weaker potency.

The text below walks through data of BindingDB's records for patent US9611261 (Amgen, 2017).

The assay has as its target Cathepsin D (Homo sapiens, UniProt P07339). Put plainly: In Vitro Enzymatic FRET Assay.

Cathepsin D, sequence (P07339 65-162 limits assumed): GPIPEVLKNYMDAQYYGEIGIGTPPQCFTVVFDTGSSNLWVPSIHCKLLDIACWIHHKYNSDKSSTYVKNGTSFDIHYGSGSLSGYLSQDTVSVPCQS
Cathepsin D, sequence (P07339 169-412 limits assumed): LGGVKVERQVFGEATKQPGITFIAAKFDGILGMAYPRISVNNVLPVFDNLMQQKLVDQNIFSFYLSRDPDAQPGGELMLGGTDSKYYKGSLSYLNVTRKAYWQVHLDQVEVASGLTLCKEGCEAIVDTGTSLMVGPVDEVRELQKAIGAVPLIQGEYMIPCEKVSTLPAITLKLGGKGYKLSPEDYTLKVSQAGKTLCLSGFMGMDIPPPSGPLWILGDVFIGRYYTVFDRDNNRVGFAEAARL
Procedure: Recombinant Cat D was expressed in CHO cells. The assay buffer for CathepsinD is 0.05 M citrate pH 3.5, 10% DMSO final, 5 mM CHAPS. […] The assays are effectively started by the addition of different FRET substrates (20 nM for Cat D) and the combination is incubated for one hour. The FRET assay is terminated with by addition of Tris buffer, which raises the pH to neutrality, and the fluorescence is determined. The FRET substrate is a peptide with commercially available fluorophore and quencher, on opposite sides of the BACE cleavage site. […] Proteolytic cleavage of the FRET substrate releases quenching of fluorescence (Cat D excitation 500 nm and emission 580 nm).

`COc1cc(Cl)cnc1C(=O)Nc1ccc(F)c([C@@]2(CF)N=C(N)O[C@@H]3C[C@@H]32)c1` [US9611261, Example 297] showed an IC50 of 835 µM.

The compound `NC1=N[C@@](c2cc(NC(=O)c3cnc(CCC#CC4CC4)cn3)ccc2F)(C(F)F)[C@H]2C[C@H]2O1` [US9611261, Example 411] came in with an IC50 of 360 µM.
